Measurements reported in PubChem BioAssay AID1208 (EPA DSSTox, 2008).
Calls of active or inactive are those of the source.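 How the source made its calls: active means at least one rat sex group has a carcinogenic potency value and tumor site recorded; inconclusive means only rat studies were judged inadequate by the national testing program; inactive means no potency or tumor site, with negative rat experiments.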 *1 amine or outer side, *2 acyl side, *3 side chain or, on linkers, in order; H or OH if unused. Where a SMILES comes first, the peptide text is derived from it. Bridges are numbered along the chain shown (N, C = ends). Roman numbers before positions name the chains, in order. [ ]: non-standard residue; d: D form. Actinocin(9to1) = Cc1c2oc3c(C)ccc(C(=O)[*:1])c3nc-2c(C(=O)[*:2])c(N)c1=O; NMeV = CN[C@H](C(=O)O)C(C)C; Sar = CNCC(=O)O

Test system: rat chronic carcinogenicity bioassay, TD50
Test: DSSTox (CPDBAS) Carcinogenic Potency Database Summary Rat Bioassay Results
Details: for outcome: TD50_Rat_Note: no positive results; for Potency: stronger effect = lower value
How it was run: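 The activity score maps log10(1/TD50_Rat_mmol) linearly onto 1–100; actives without a computed TD50, such as mixtures, receive 50. Source data are chronic rat carcinogenicity tests, using the most positive experiment for each sex.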

[1] = TargetSites_Rat_Female: no positive results
[2] = TD50_Rat_Note: TD50 is harmonic mean of more than one positive test, TargetSites_Rat_Female: thyroid gland

CC(=O)CN(N=O)C(=O)NCCCl
outcome [1]: inactive; no positive results

C1CNCCN1
outcome [1]: inactive; no positive results

COc1ccc(CN(CCN(C)C)c2ccccn2)cc1
Potency (TD50_Rat_Note: TD50 is harmonic mean of more than one positive test, TargetSites_Rat_Female: liver): 280 mg/kg/day

O=C1OC(O)C(C(Cl)Cl)=C1Cl (centres undefined)
Potency (TD50_Rat_Note: TD50 is harmonic mean of more than one positive test, TargetSites_Rat_Female: adrenal gland, hematopoietic system, liver, mammary gland, thyroid gland): 0.583 mg/kg/day

CCOC(=O)[C@]1(c2ccccc2)CCC=C[C@H]1N(C)C
outcome [1]: inactive; no positive results

ClC1C2(Cl)C3C4C5OC5C5C4C1(Cl)C(Cl)(C53)C2(Cl)Cl (centres undefined)
outcome [1]: inactive; no positive results

CN(C)CCN(Cc1ccco1)c1ccccn1
outcome [1]: inactive; no positive results

NC(Cc1ccc(O)c(O)c1)C(=O)O (centres undefined)
outcome: inactive; no positive results

Cc1ccc(NC(N)=O)cc1
outcome [1]: inactive; no positive results

CCCCCCCCCC[N+](C)(C)[O-]
outcome [1]: inactive; no positive results

O.[Cd+2].[Cl-].[Cl-]
outcome [1]: inactive; no positive results

CC1=C2C(=CO[C@@H](C)[C@@H]2C)C(=O)C(C(=O)O)=C1O
Potency (TD50_Rat_Note: TD50 value is overestimated as upper 99% confidence limit from study with 100% tumor incidence but no lifetable, TD50 is): 7.48 mg/kg/day

Cn1cc[nH]c1=S
Potency [2]: 1.14 mg/kg/day

CS(=O)(=O)c1ccc([C@@H](O)[C@@H](CO)NC(=O)C(Cl)Cl)cc1
outcome [1]: inactive; no positive results

O=NN1CCOCC1
Potency (TD50_Rat_Note: TD50 is harmonic mean of more than one positive test, TargetSites_Rat_Female: liver, vascular system): 0.109 mg/kg/day

Nc1ccc(N)c2c1C(=O)c1c(N)ccc(N)c1C2=O
Potency (TD50_Rat_Note: TD50 is harmonic mean of more than one positive test, TargetSites_Rat_Female: urinary bladder): 156 mg/kg/day

CC(=O)Nc1ccc(O)cc1
Potency (TD50_Rat_Note: TD50 is harmonic mean of more than one positive test, TargetSites_Rat_Female: liver, urinary bladder): 495 mg/kg/day

C1CCOC1
Potency [1]: 407 mg/kg/day

CCc1cccc2c3c([nH]c12)C(CC)(CC(=O)O)OCC3 (centres undefined)
outcome [1]: inactive; no positive results

C[C@@H]1Cc2c(Cl)cc(C(=O)N[C@@H](Cc3ccccc3)C(=O)O)c(O)c2C(=O)O1
Potency (TD50_Rat_Note: TD50 is harmonic mean of more than one positive test, TargetSites_Rat_Female: kidney, mammary gland): 0.136 mg/kg/day

CCCCN(CCCCO)N=O
Potency (TD50_Rat_Note: TD50 is harmonic mean of more than one positive test, harmonic mean of TD50 includes a value for upper 99% confidence li, TargetSites_Rat_Female: urinary bladder): 0.457 mg/kg/day

C#CC(OC(N)=O)(c1ccccc1)c1ccc(Cl)cc1 (centres undefined)
Potency: 8.78 mg/kg/day

CN(C)P(=O)(N(C)C)N(C)C
Potency (TD50_Rat_Note: TD50 is harmonic mean of more than one positive test, TargetSites_Rat_BothSexes: nasal cavity): 0.0344 mg/kg/day

O=NN(CC(F)(F)F)CC(F)(F)F
outcome [1]: inactive; no positive results

O=[N+]([O-])/C=C/c1ccccc1
outcome [1]: inactive; no positive results

Cc1c2oc3c(C)ccc(C(=O)N[C@@H]4C(=O)N[C@H](C(C)C)C(=O)N5CCC[C@H]5C(=O)N(C)CC(=O)N(C)[C@@H](C(C)C)C(=O)O[C@@H]4C)c3nc-2c(C(=O)N[C@@H]2C(=O)N[C@H](C(C)C)C(=O)N3CCC[C@H]3C(=O)N(C)CC(=O)N(C)[C@@H](C(C)C)C(=O)O[C@@H]2C)c(N)c1=O (I: T[dV]P[Sar][NMeV] / II: T[dV]P[Sar][NMeV]; ester I:1-I:C, II:1-II:C; linker I:N-II:N via Actinocin(9to1))
Potency (TD50_Rat_Note: positive test results only by intraperitoneal or intravenous injection, TD50 is harmonic mean of more than one positive, TargetSites_Rat_Female: peritoneal cavity): 0.00111 mg/kg/day

C#C[C@]1(OC(C)=O)CC[C@H]2[C@@H]3CCC4=CC(=O)CC[C@@H]4[C@H]3CC[C@@]21C
Potency (TD50_Rat_Note: TD50_Rat_mmol was not calculated for this mixture, but Activiity Score is assigned value of 50 to indicate active, TargetSites_Rat_BothSexes: liver, mammary gland, pituitary gland, uterus): 1.94 mg/kg/day

C=CCN(CCO)N=O
Potency (TargetSites_Rat_Female: liver, nasal cavity): 0.491 mg/kg/day

CCCN(N=O)C(N)=O
Potency (TD50_Rat_Note: TD50 is harmonic mean of more than one positive test, harmonic mean of TD50 includes a value for upper 99% confidence li, TargetSites_Rat_Female: hematopoietic system): 3.77 mg/kg/day

N=C1C=CC(=C(c2ccc(N)cc2)c2ccc(N)cc2)C=C1
Potency (TD50_Rat_Note: TD50 is harmonic mean of more than one positive test, TargetSites_Rat_Female: ear Zymbals gland, subcutaneous tissue, thyroid gland): 39.4 mg/kg/day

CCCCCCCC/C=C\CCCCCCCC(=O)O
outcome [1]: inactive; no positive results

CCN(CC)C(=O)Nc1ccc(OCC(O)CNC(C)(C)C)c(C(C)=O)c1 (centres undefined)
outcome [1]: inactive; no positive results

CC(C(=O)O)c1cccc(C(=O)c2ccccc2)c1 (centres undefined)
outcome: inactive; no positive results

O=C1NC(c2ccc([N+](=O)[O-])s2)Nc2ccccc21 (centres undefined)
Potency (TargetSites_Rat_Female: all tumor bearing animals): 1.53 mg/kg/day

CCC(CC)[N+](=O)[O-]
Potency: 2.37 mg/kg/day

CCOc1ccc(NC(N)=O)cc1
Potency (TargetSites_Rat_BothSexes: liver): 537 mg/kg/day

CC(=O)CN(CC(O)CO)N=O (centres undefined)
Potency (TargetSites_Rat_Female: esophagus, oral cavity, stomach): 0.0352 mg/kg/day

Cc1nnc2n1-c1sc(CCc3ccc(CC(C)C)cc3)cc1C(c1ccccc1Cl)=NC2C (centres undefined)
outcome [1]: inactive; no positive results

CC(C)C(C(=O)OC(C#N)c1cccc(Oc2ccccc2)c1)c1ccc(Cl)cc1 (centres undefined)
outcome [1]: inactive; no positive results

O=C1c2cccc(O)c2C(=O)c2c(O)cccc21
Potency: 245 mg/kg/day

Clc1cccc(-c2cc(Cl)cc(Cl)c2)c1
Potency (TD50_Rat_Note: TD50_Rat_mmol was not calculated for this mixture, but Activiity Score is assigned value of 50 to indicate active, TargetSites_Rat_Female: liver): 53.9 mg/kg/day

CCCNC(=O)NS(=O)(=O)c1ccc(Cl)cc1
outcome [1]: inactive; no positive results

CC(Cl)(Cl)Cl
outcome [1]: inactive; no positive results

NC(=O)c1cnccn1
outcome [1]: inactive; no positive results

Nc1ncn[nH]1
Potency (TD50_Rat_Note: TD50 is harmonic mean of more than one positive test, TargetSites_Rat_Female: pituitary gland, thyroid gland): 9.94 mg/kg/day

COc1c(Cl)c(Cl)c(Cl)c(Cl)c1Cl
Potency [1]: 24.8 mg/kg/day

COc1cc(OC)c2c3c(c(=O)oc2c1)C(=O)CC3
outcome: inactive; no positive results

Cc1ccccc1S(N)(=O)=O
Potency (TargetSites_Rat_BothSexes: urinary bladder): 3960 mg/kg/day

Nc1ccc(Oc2ccc(N)cc2)cc1
Potency (TD50_Rat_Note: TD50 is harmonic mean of more than one positive test, TargetSites_Rat_Female: liver, thyroid gland): 9.51 mg/kg/day

CCCCCN(N=O)C(N)=O
Potency (TD50_Rat_Note: TD50 is harmonic mean of more than one positive test, TargetSites_Rat_Female: hematopoietic system, lung, mammary gland, stomach, uterus): 0.555 mg/kg/day

IC(I)I
outcome [1]: inactive; no positive results

ClC(Cl)Br
Potency (TD50_Rat_Note: TD50 is harmonic mean of more than one positive test, greater than ten-fold variation among TD50 values for positive res, TargetSites_Rat_Female: kidney, large intestine, liver): 72.5 mg/kg/day

NC(=S)Nc1ccccc1
outcome [1]: inactive; no positive results

CC(=O)OC(OC(C)=O)c1ccc([N+](=O)[O-])o1
outcome [1]: inactive

COc1ccccc1N1CCN(CCCNc2cc(=O)n(C)c(=O)n2C)CC1
outcome [1]: inactive; no positive results

Cc1ccc(C)c(C)c1
Potency [1]: 4350 mg/kg/day

C=CC#N
Potency (TD50_Rat_Note: TD50 is harmonic mean of more than one positive test, greater than ten-fold variation among TD50 values for positive res, TargetSites_Rat_Female: ear Zymbals gland, mammary gland, nasal cavity, nervous system, oral cavity, small intestine, stomach): 16.9 mg/kg/day

CC(CN1c2ccccc2Sc2ccccc21)N(C)C (centres undefined)
outcome [1]: inactive; no positive results

O=NN1CCCN(N=O)CC1
Potency (TD50_Rat_Note: TD50 is harmonic mean of more than one positive test, TargetSites_Rat_Female: esophagus, liver, nasal cavity, oral cavity): 0.0615 mg/kg/day

CC(C)[N+](=O)[O-]
outcome [1]: inactive; no positive results

CC(C)=NO
Potency [1]: 12.1 mg/kg/day

NC(=O)N(CCO)N=O
Potency (TD50_Rat_Note: TD50 is harmonic mean of more than one positive test, greater than ten-fold variation among TD50 values for positive res, TargetSites_Rat_Female: hematopoietic system, mammary gland): 0.244 mg/kg/day

CN(CC(O)CO)N=O (centres undefined)
Potency (TargetSites_Rat_Female: esophagus, liver, lung, nasal cavity): 0.646 mg/kg/day

CC(C)Cc1ccc(C(C)C(=O)O)cc1 (centres undefined)
outcome: inactive; no positive results

CC(C)(OCc1ccc(-c2ccc(Cl)cc2)cc1)C(=O)O
outcome [1]: inactive; no positive results

Nc1ccc(Cc2ccc(N)cc2)cc1
Potency [2]: 20 mg/kg/day

Clc1c(Cl)c(Cl)c(Cl)c(Cl)c1Cl
Potency (TD50_Rat_Note: TD50 is harmonic mean of more than one positive test, harmonic mean of TD50 includes a value for upper 99% confidence li, TargetSites_Rat_Female: liver): 3.86 mg/kg/day

NCCc1ccc(O)c(O)c1
outcome: inactive; no positive results

C[C@]12C=CC(=O)C=C1CC[C@@H]1[C@@H]2[C@@H](O)C[C@@]2(C)[C@H]1CC[C@]2(O)C(=O)COC(=O)CCCc1ccc(N(CCCl)CCCl)cc1
Potency (TargetSites_Rat_Female: ear Zymbals gland): 19.2 mg/kg/day

CCNNC(=O)[C@@H]1[C@H](c2cc(OC)c(OC)c(OC)c2)c2cc3c(cc2[C@H](O)[C@H]1CO)OCO3
outcome: inactive; no positive results

Cc1cc(C)c(N)cc1C
Potency (TD50_Rat_Note: TD50 is harmonic mean of more than one positive test, TargetSites_Rat_Female: liver, lung): 33.6 mg/kg/day | Potency (TD50_Rat_Note: no positive results are statistically significant): 98.5 mg/kg/day

CC(=O)Nc1ccc(S(=O)(=O)O)c2cc(S(=O)(=O)O)c(N=Nc3ccc(N=Nc4ccc(S(=O)(=O)O)cc4)c4ccc(S(=O)(=O)O)cc34)c(O)c12
outcome [1]: inactive; no positive results

CCOc1ccc(NC(C)=O)cc1N
outcome [1]: inactive; no positive results

CNCc1ccc(CSCCNC(=NCC(O)c2ccc(O)cc2)NS(C)(=O)=O)o1 (centres undefined)
outcome [1]: inactive; no positive results

O=P(OCCCl)(OCCCl)OCCCl
Potency (TD50_Rat_Note: TD50 is harmonic mean of more than one positive test, TargetSites_Rat_Female: kidney): 86.7 mg/kg/day

CN(C)N
outcome [1]: inactive; no positive results

O=C1NC(=O)C(c2ccccc2)(c2ccccc2)N1
outcome [1]: inactive; no positive results

OC[C@@H](O)[C@@H](O)[C@H](O)[C@H](O)CO
outcome [1]: inactive; no positive results
